From ChEMBL document CHEMBL1154779, “Synthesis and adrenolytic activity of 1-(1H-indol-4-yloxy)-3-(2-(2-methoxy phenoxy)ethylamino)propan-2-ol analogs and its enantiomers. Part 2” (Eur J Med Chem, 2009)
Calls of active or inactive are those of the source. The calls are words filed in the database; no cut-off is given here.

How the values were obtained:
[1] = biological target: T1, Adrenergic receptor alpha-2 (Rattus norvegicus, UniProt P22086+P19328+P22909); test: Displacement of [3H]Clonidine from alpha2 adrenergic receptor in Wistar rat cerebral cortex membrane by liquid scintillation counting; assay type: tissue-based
T1 sequence (P22086 whole entry): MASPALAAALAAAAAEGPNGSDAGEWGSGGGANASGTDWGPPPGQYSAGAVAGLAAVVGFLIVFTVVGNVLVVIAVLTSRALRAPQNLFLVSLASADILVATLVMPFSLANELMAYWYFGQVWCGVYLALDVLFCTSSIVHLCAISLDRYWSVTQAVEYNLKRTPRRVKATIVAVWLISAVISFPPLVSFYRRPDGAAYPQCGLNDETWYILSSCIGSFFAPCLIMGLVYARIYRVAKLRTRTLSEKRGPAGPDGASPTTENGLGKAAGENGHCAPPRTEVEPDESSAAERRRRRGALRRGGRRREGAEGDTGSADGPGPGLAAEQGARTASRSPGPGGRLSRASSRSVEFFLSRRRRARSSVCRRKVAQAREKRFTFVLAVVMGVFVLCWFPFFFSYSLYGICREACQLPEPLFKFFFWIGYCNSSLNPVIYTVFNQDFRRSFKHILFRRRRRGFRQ
T1 sequence (P19328 whole entry): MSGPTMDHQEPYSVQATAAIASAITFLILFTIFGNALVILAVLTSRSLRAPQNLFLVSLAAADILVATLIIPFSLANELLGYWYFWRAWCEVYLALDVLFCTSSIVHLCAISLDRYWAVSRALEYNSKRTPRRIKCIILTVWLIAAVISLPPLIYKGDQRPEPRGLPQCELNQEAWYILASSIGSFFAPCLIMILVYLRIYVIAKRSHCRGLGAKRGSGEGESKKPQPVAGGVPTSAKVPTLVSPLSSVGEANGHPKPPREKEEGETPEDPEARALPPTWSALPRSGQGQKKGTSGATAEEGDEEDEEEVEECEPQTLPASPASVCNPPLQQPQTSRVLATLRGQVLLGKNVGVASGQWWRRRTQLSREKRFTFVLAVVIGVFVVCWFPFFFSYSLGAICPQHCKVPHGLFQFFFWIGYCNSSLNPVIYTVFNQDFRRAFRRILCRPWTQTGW
T1 sequence (P22909 whole entry): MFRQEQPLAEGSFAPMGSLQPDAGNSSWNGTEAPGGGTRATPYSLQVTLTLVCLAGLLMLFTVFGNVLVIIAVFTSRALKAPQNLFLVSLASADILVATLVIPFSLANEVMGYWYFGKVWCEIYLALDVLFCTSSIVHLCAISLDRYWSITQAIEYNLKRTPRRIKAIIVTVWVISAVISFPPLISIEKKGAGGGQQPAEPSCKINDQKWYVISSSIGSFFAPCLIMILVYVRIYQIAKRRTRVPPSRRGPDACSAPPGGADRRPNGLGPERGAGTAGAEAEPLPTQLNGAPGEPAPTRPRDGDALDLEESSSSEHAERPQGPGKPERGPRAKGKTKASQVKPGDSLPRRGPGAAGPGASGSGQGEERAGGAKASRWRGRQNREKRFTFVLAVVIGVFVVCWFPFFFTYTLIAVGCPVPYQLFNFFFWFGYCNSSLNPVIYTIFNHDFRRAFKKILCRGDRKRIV

Rattus norvegicus [2] = test: Hypotensive activity in normotensive Wistar rat assessed as decrease in systolic blood pressure at 0.125 mg/kg, iv up to 60 mins; assay type: functional, organism-based; set-up: dose 0.125 mg/kg; details: Artery
Rattus norvegicus [3] = test: Hypotensive activity in normotensive Wistar rat assessed as decrease in diastolic blood pressure at 0.125 mg/kg, iv up to 60 mins; assay type: functional, organism-based; set-up: dose 0.125 mg/kg; details: Artery
Rattus norvegicus [4] = test: Hypotensive activity in normotensive Wistar rat assessed as decrease in diastolic blood pressure at 0.25 to 1 mg/kg, iv up to 60 mins; assay type: functional, Artery; set-up: scale not given: the % may be the effect or the level left; details: dose mg/kg 0.25-1
Rattus norvegicus [5] = test: Hypotensive activity in normotensive Wistar rat assessed as decrease in systolic blood pressure at 0.25 to 1 mg/kg, iv up to 60 mins; assay type: functional; set-up: scale not given: the % may be the effect or the level left; details: dose mg/kg 0.25-1
Rattus norvegicus [6] = test: Effect on heart rate in anesthetized Wistar rat assessed as decrease in heart rate at 1 mg/kg, iv up to 15mins by electrocardiography; assay type: functional; set-up: scale not given: the % may be the effect or the level left
Rattus norvegicus [7] = test: Hypotensive activity in normotensive Wistar rat assessed as decrease in systolic blood pressure at 0.125 to 1 mg/kg, iv up to 60 mins; assay type: functional, organism-based; details: Artery
Rattus norvegicus [8] = test: Hypotensive activity in normotensive Wistar rat assessed as decrease in diastolic blood pressure at 1 to 5 mg/kg, iv up to 60 mins; assay type: functional, organism-based; details: Artery
Oryctolagus cuniculus [9] = species on record: Oryctolagus cuniculus; test: (§1) Spasmolytic activity in rabbit ileum assessed as decrease in amplitude of contraction at 10 uM measured for 5 mins; assay type: functional
Rattus norvegicus [10] = test: Hypotensive activity in normotensive Wistar rat assessed as decrease in diastolic blood pressure at 0.0312 mg/kg, iv up to 60 mins; assay type: functional, organism-based; set-up: dose 0.0312 mg/kg; details: Artery
Rattus norvegicus [11] = test: Hypotensive activity in normotensive Wistar rat assessed as decrease in systolic blood pressure at 0.0312 mg/kg, iv up to 60 mins; assay type: functional, organism-based; set-up: dose 0.0312 mg/kg; details: Artery
Oryctolagus cuniculus [12] = species on record: Oryctolagus cuniculus; test: (§2) Spasmolytic activity in rabbit ileum assessed as decrease in amplitude of contraction at 100 uM measured for 5 mins; assay type: functional
Rattus norvegicus [13] = test: Hypotensive activity in normotensive Wistar rat assessed as decrease in systolic blood pressure at 0.0625 mg/kg, iv up to 60 mins; assay type: functional, organism-based; set-up: dose 0.0625 mg/kg; details: Artery
Rattus norvegicus [14] = test: Hypotensive activity in normotensive Wistar rat assessed as decrease in diastolic blood pressure at 0.0625 mg/kg, iv up to 60 mins; assay type: functional, organism-based; set-up: dose 0.0625 mg/kg; details: Artery
[15] = as §1; assay type: functional, Oryctolagus cuniculus; set-up: scale not given: the % may be the effect or the level left
[16] = as §2; assay type: functional, Oryctolagus cuniculus; set-up: scale not given: the % may be the effect or the level left
Rattus norvegicus [17] = test: Hypotensive activity in normotensive Wistar rat assessed as decrease in systolic blood pressure at 0.125 mg/kg, iv up to 30 mins; assay type: functional, organism-based; set-up: dose 0.125 mg/kg; details: Artery
Rattus norvegicus [18] = test: Hypotensive activity in normotensive Wistar rat assessed as decrease in diastolic blood pressure at 0.125 mg/kg, iv up to 10 mins; assay type: functional, organism-based; set-up: dose 0.125 mg/kg; details: Artery

**Q.** With COc1ccccc1OCCNC[C@@H](O)COc1ccc(OC)c2[nH]ccc12 as the compound, how does the Ki [1] read?
**A.** 108.8 nM

**Q.** What about the Activity (Rattus norvegicus [2]) of the same compound?
**A.** inactive

**Q.** And the Activity (Rattus norvegicus [3])?
**A.** inactive

**Q.** And the Activity (Rattus norvegicus [4])?
**A.** 13%

**Q.** What about the Activity (Rattus norvegicus [5]) of the same compound?
**A.** 12%

**Q.** And the Activity (Rattus norvegicus [6])?
**A.** 10%

**Q.** Which Ki [1] does the source give for COc1ccccc1OCCNC[C@H](O)COc1c(OC)ccc2[nH]ccc12 here?
**A.** 60.9 nM

**Q.** What about the Activity (Rattus norvegicus [7]) of the same compound?
**A.** Active

**Q.** What about the Activity (Rattus norvegicus [8]) of the same compound?
**A.** Active

**Q.** What about the Activity (Oryctolagus cuniculus [9]) of the same compound?
**A.** Active

**Q.** What about the Activity (Rattus norvegicus [10]) of the same compound?
**A.** inactive

**Q.** What about the Activity (Rattus norvegicus [11]) of the same compound?
**A.** inactive

**Q.** What about the Activity (Oryctolagus cuniculus [12]) of the same compound?
**A.** Active

**Q.** What does the source list for COc1ccccc1OCCNC[C@@H](O)COc1c(OC)ccc2[nH]ccc12?
**A.** Ki [1]: 43 nM; Activity (Rattus norvegicus [7]): Active; Activity (Rattus norvegicus [8]): Active; Activity (Oryctolagus cuniculus [9]): Active; Activity (Rattus norvegicus [13]): inactive; Activity (Rattus norvegicus [14]): inactive; Activity (Oryctolagus cuniculus [12]): Active

**Q.** Which results are given for COc1ccccc1OCCNCC(O)COc1ccc(OC)c2[nH]ccc12 (racemic)?
**A.** Ki [1]: 180.8 nM; Activity (Oryctolagus cuniculus [9]): inactive; Activity [15]: 10%; Activity (Rattus norvegicus [2]): inactive; Activity (Rattus norvegicus [3]): inactive; Activity (Rattus norvegicus [4]): 13%; Activity (Rattus norvegicus [5]): 12%; Activity (Oryctolagus cuniculus [12]): inactive; Activity [16]: 10%; Activity (Rattus norvegicus [6]): 10%

**Q.** Which results are given for COc1ccccc1OCCNCC(O)COc1c(OC)ccc2[nH]ccc12 (racemic)?
**A.** Activity (Rattus norvegicus [17]): Active; Ki [1]: 56.9 nM; Activity (Rattus norvegicus [7]): Active; Activity (Rattus norvegicus [18]): Active; Activity (Rattus norvegicus [8]): Active; Activity (Oryctolagus cuniculus [9]): inactive; Activity (Rattus norvegicus [4]): 8%; Activity (Rattus norvegicus [5]): 7%; Activity (Oryctolagus cuniculus [12]): Active

**Q.** With COc1ccccc1OCCNC[C@H](O)COc1ccc(OC)c2[nH]ccc12 as the compound, how does the Ki [1] read?
**A.** 277.2 nM

**Q.** What about the Activity [15] of the same compound?
**A.** 10%

**Q.** And the Activity (Rattus norvegicus [2])?
**A.** inactive

**Q.** What about the Activity (Rattus norvegicus [3]) of the same compound?
**A.** inactive

**Q.** What about the Activity (Rattus norvegicus [4]) of the same compound?
**A.** 13%

**Q.** What about the Activity (Rattus norvegicus [5]) of the same compound?
**A.** 12%

**Q.** What about the Activity [16] of the same compound?
**A.** 10%

**Q.** And the Activity (Rattus norvegicus [6])?
**A.** 10%
